Data taken from patent US20100280024A1, “RENIN INHIBITORS” (priority 2007, published 2010).
Structures can show the parent of a compound that is named as a salt.

Columns and labels:
Renin [1] = target: T1, Renin (Homo sapiens, UniProt P00797); test: Renin inhibition in human plasma (IC50); assay type: biochemical; design: from tissue; host or cells: human plasma
T1 sequence (P00797 67-406): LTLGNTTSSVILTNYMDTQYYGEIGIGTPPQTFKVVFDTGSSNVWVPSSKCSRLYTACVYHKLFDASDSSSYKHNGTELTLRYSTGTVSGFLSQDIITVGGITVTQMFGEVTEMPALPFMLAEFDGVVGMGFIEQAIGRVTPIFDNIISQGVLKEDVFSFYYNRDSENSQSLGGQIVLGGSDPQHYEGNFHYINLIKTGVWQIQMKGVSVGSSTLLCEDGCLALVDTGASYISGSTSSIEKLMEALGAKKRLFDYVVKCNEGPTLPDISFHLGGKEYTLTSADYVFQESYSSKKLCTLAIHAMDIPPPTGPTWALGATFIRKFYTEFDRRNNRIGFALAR
Text: Following table represents measured IC50 values of the selected compounds for its Renin inhibition in human plasma.

Renin [2] = target: T1, Renin; test: In-vitro renin inhibition assay (modified Cayman renin inhibitor screening assay, fluorescence); assay type: biochemical; design: purchased Cayman 10006270; details: 37° C., 30 mins; for inhibition at 0.1 µM: read-out: Renin inhibition (percent inhibition of renin activity) at 0.1 μM; for inhibition at 1 µM: read-out: Renin inhibition (percent inhibition of renin activity) at 1 μM
Experimental: In-Vitro Renin Inhibition Assay
The enzymatic in vitro assay was performed in 96 well polypropylene plate (Nunc), using a modified Renin inhibitor screening assay protocol (Cayman, cat no: 10006270). The reaction system comprised assay buffer containing 50 mM Tris-HCL, pH=8.0 & 100 mM sodium chloride, human recombinant renin (1:20 diluted with fixed activity), synthetic renin substrates (9.5 μM) and different concentrations of renin inhibitors in DMSO in a total reaction system of 100 μl. The entire incubation mixture were incubated at 37° C. for 30 mins and the fluorescence was read in kinetic mode using excitation wavelengths of 335-345 nm and emission wavelengths of 485-510 nm. Enzyme inhibition was determined by percent inhibition of renin activity.

Structure (SMILES)	IC50 (Renin [1])	inhibition at 0.1 µM (Renin [2]; compound concentration 0.1 μM)	inhibition at 1 µM (Renin [2]; compound concentration 1 μM)	Renin inhibition (percent inhibition of renin activity) at 0.1 μM (Renin [2]; compound concentration 0.1 μM)	Renin inhibition (percent inhibition of renin activity) at 1 μM (Renin [2]; compound concentration 1 μM)
Cc1cc(Cl)c(OCCOc2ccc(CC(CN)C(=O)N3CCCc4cc(C(F)(F)F)ccc43)cc2)c(Cl)c1.Cl (centres unmarked) [Example 15A, 3-Amino-2-{4-[2-(2,6-dichloro-4-methyl-phenoxy)-ethoxy]-benzyl}-1-(6-trifluoromethyl-3,4-dihydro-2H -quinolin-1-yl)-propan-1-one hydrochloride]	7.85 nM	–	–	80.00	88.0
COCCCOc1ccc2c(c1)CCCN2C(=O)C(CN)Cc1ccc(OCCOc2c(Cl)cc(C)cc2Cl)cc1 (centres unmarked) [Example 24, 3-Amino-2-{4-[2-(2,6-dichloro-4-methyl-phenoxy)-ethoxy]-benzyl}-1-[6-(3-methoxy-propoxy)-3,4-dihydro-2H-quinolin-1-yl]-propan-1-one]	25.4 nM	90.7%	93.2%	–	–
COCC1CCCN(C(=O)C(CN)Cc2ccc(OCCOc3c(Cl)cc(C)cc3Cl)cc2)C1 (centres unmarked) [Example 26, 2-Aminomethyl-3-{4-[2-(2,6-dichloro-4-methyl-phenoxy)-ethoxy]-phenyl}-1-(3-methoxymethyl-piperidin-1-yl)-propan-1-one hydrochloride]	27.8 nM	92.8%	93.9%	–	–
NCC(Cc1ccc(OCCOc2c(Cl)cccc2Cl)cc1)C(=O)N1CCCc2cc(C(F)(F)F)ccc21 (centres unmarked) [Example 31, 3-Amino-2-{4-[2-(2,6-dichloro-phenoxy)-ethoxy]-benzyl}-1-(6-trifluoromethyl-3,4-dihydro-2H-quinolin-1-yl)-propan-1-one hydrochloride]	28.7 nM	94.1%	102%	–	–
NCC(Cc1ccc(OCCOc2c(Cl)cccc2Cl)cc1)C(=O)N1CCCc2cc(OC(F)(F)F)ccc21 (centres unmarked) [Example 32, 3-Amino-2-{4-[2-(2,6-dichloro-phenoxy)-ethoxy]-benzyl}-1-(6-trifluoromethoxy-3,4-dihydro-2H-quinolin-1-yl)-propan-1-one hydrochloride]	0.829 nM	100%	–	–	–
Cc1cc(Cl)c(OCCOc2ccc(CC(CN)C(=O)N3CCCCC3)cn2)c(Cl)c1 (centres unmarked) [Example 42, 2-Aminomethyl-3-{6-[2-(2,6-dichloro-4-methyl-phenoxy)-ethoxy]-pyridin-3-yl}-1-piperidin-1-yl-propan-1-one]	–	71%	82.5%	–	–
Cc1cc(Cl)c(OCCOc2ccc(CC(CN)C(=O)N3CCCc4ccccc43)cn2)c(Cl)c1 (centres unmarked) [Example 43, 2-Aminomethyl-3-{6-[2-(2,6-dichloro-4-methyl-phenoxy)-ethoxy]-pyridin-3-yl}-1-(3,4-dihydro-2H-quinolin-1-yl)-propan-1-one]	–	–	64.2%	–	–
Cc1cc(Cl)c(OCCOc2ccc(CC(CN)C(=O)N3CCCc4cc(F)ccc43)cn2)c(Cl)c1 (centres unmarked) [Example 44, 3-Amino-2-{6-[2-(2,6-dichloro-4-methyl-phenoxy)-ethoxy]-pyridin-3-ylmethyl}-1-(6-fluoro-3,4-dihydro-2H-quinolin-1-yl)-propan-1-one hydrochloride]	–	63.1%	96.3%	–	–
CC(C)(C)c1ccc2c(c1)CCCN2C(=O)C(CN)Cc1ccc(OCCOc2c(Cl)cccc2Cl)cc1 (centres unmarked) [Example 53, 3-Amino-1-(6-tert-butyl-3,4-dihydro-2H-quinolin-1-yl)-2-{4-[2-(2,6-dichloro-phenoxy)-ethoxy]-benzyl}-propan-1-one hydrochloride]	–	93.1%	–	–	–

The next lines start with the values.

IC50 (Renin [1])	inhibition at 0.1 µM (Renin [2]; compound concentration 0.1 μM)	inhibition at 1 µM (Renin [2]; compound concentration 1 μM)	Renin inhibition (percent inhibition of renin activity) at 0.1 μM (Renin [2]; compound concentration 0.1 μM)	Renin inhibition (percent inhibition of renin activity) at 1 μM (Renin [2]; compound concentration 1 μM)	Structure (SMILES)
70.2 nM	77%	90.7%	–	–	Cc1cc(Cl)c(OCCOc2ccc(CC(CN)C(=O)N3CCCCC3)cc2)c(Cl)c1 (centres unmarked) [Example 12, 3-Amino-2-{4-[2-(2,6-dichloro-4-methyl-phenoxy)-ethoxy]-benzyl}-1-piperidin-1-yl-propan-1-one]
0.921 nM	100%	99.2%	–	–	Cc1cc(Cl)c(OCCOc2ccc(CC(CN)C(=O)N3CCCc4cc(OC(F)(F)F)ccc43)cc2)c(Cl)c1 (centres unmarked) [Example 27, 3-Amino-2-{4-[2-(2,6-dichloro-4-methyl-phenoxy)-ethoxy]-benzyl}-1-(6-trifluoromethoxy-3,4-dihydro-2H-quinolin-1-yl)-propan-1-one hydrochloride]
–	80.1%	98.6%	–	–	Cc1cc(Cl)c(OCCOc2ccc(CC(CN)C(=O)N3CCCc4cc(C(F)(F)F)ccc43)cn2)c(Cl)c1 (centres unmarked) [Example 41, 3-Amino-2-{6-[2-(2,6-dichloro-4-methyl-phenoxy)-ethoxy]-pyridin-3-ylmethyl}-1-(6-trifluoromethyl-3,4-dihydro-2H-quinolin-1-yl)-propan-1-one]
–	18.7%	97.1%	–	–	Cc1cc(Cl)c(OCCCOc2ccc(CC(CN)C(=O)N3CCCc4ccccc43)cc2)c(Cl)c1 (centres unmarked) [Example 45, 2-Aminomethyl-3-{4-[3-(2,6-dichloro-4-methyl-phenoxy)-propoxy]-phenyl}-1-(3,4-dihydro-2H-quinolin-1-yl)-propan-1-one]
–	43.1%	–	–	–	COc1ccccc1COCCCOc1ccc(CC(CN)C(=O)N2CCCc3cc(C(F)(F)F)ccc32)cc1 (centres unmarked) [Example 47, 3-Amino-2-{4-[3-(2-methoxy-benzyloxy)-propoxy]-benzyl}-1-(6-trifluoromethyl-3,4-dihydro-2H-quinolin-1-yl)-propan-1-one]
–	–	58.5%	–	–	COc1cc(CC(CN)C(=O)N2CCCc3ccccc32)ccc1OCCOc1c(Cl)cc(C)cc1Cl (centres unmarked) [Example 48, 3-Amino-2-{4-[2-(2,6-dichloro-4-methyl-phenoxy)-ethoxy]-3-methoxy-benzyl}-1-(3,4-dihydro-2H-quinolin-1-yl)-propan-1-one hydrochloride]
